Reference: publication PMC6817585, “Simultaneous Determination of Five Alkaloids by HPLC-MS/MS Combined With Micro-SPE in Rat Plasma and Its Application to Pharmacokinetics After Oral Administration of Lotus Leaf Extract” (Frontiers in Pharmacology, 2019)

Columns and labels:
[1] = Stability of analytes in rat plasma QC samples (auto-sampler, freeze-thaw, short-time, long-term); assay type: in vitro ADME; conditions: rat, plasma
Procedure: (§1) The stabilities (including auto-sampler, freeze–thaw cycles, and short-time and long-term stability) of all analytes were obtained by testing QC samples of four concentrations. Moreover, the stabilities for stock and working solution were assessed with mixed standard substance (100 ng·ml^−1) and the QC sample solutions of four concentration levels, respectively. These solutions were achieved by diluting stock solutions kept at 4°C for 2 weeks. For IS, the evaluated procedures of two stabilities were same as the five alkaloids.

[2] = Pharmacokinetics of five alkaloids in rat plasma after oral administration of lotus leaf extract; assay type: in vivo, Male Sprague-Dawley rats; conditions: rat, in vivo, po
Procedure: All analyses were performed on Agilent 1200 HPLC system (Agilent Corporation, USA) and API 3200 triple-quadrupole mass spectrometer (Concord, Ontario, Canada) in multiple-reaction monitoring (MRM) with positive ionization mode. Acetonitrile (A) and formic acid aqueous solution (B) (0.1%, v/v) is used to separate the analytes on Eclipse plus C18 column (4.6 mm × 100 mm, 1.8 µm) with a guard C18 column (2.1 mm × 12.5 mm, 5 µm). The gradient of elution is as follows: 5%–60% A at 0 to 4 min, 60%–70% A at 4 to 5 min, 70%–93% A at 5 to 7 min, 93%–94% A at 7 to 11 min, 94%–5% A at 11 to 12 min, and 5%–5% A at 12 to 17 min. The flow rate and injection volume are 0.3 ml·min^-1 and 5 µl, respectively. The main parameters of ion source including the ion spray voltage, the curtain gas, and temperature are set at 5000 V, 35 psi, and 450°C, respectively.
The real plasma sample (100 µl) and IS solution (10 µl) were vortex-mixed for 1 min. The sample was carried out with the SPE column (Cleanert PEP-2, 40–60 µm, 60 Å, 10 mg/1 ml; Phenomenex, Torrance, CA, USA). First, SPE columns were activated by 50% methanol in water (1 ml) and 0.1% formic acid in water (1 ml) and were used to activate the SPE column in sequence. Second, columns were washed with 200 µl methanol (20%, v/v) and eluted with acetonitrile (400 µl) after the plasma samples were added. Finally, the eluent was centrifuged for 10 min with 14,000 rpm. Then final solutions were injected into the HPLC-MS/MS and analyzed.
The pharmacokinetic study was conducted in accordance with the Guidelines for the Care and Use of Laboratory Animals by the US National Institutes of Health and approved by the Animal Ethics Committee of Tianjin University of Traditional Chinese Medicine (permit number: TCM-LAEC2019022, Tianjin, China),. Male Sprague-Dawley rats (240–260 g) were fed in the animal laboratory of the Tianjin University of Traditional Chinese Medicine under the standard conditions. These rats were allowed free to get standard laboratory food and water and conformed for 1 week until 12 h before experiment. These rats (n = 10) were fasted, although they were still given water for 12 h, before the oral administration of lotus leaf extract. […] The plasma samples were centrifuged in 10 min at 7000 rpm and kept at −20°C until analyzed.
All of the pharmacokinetic parameters were calculated by one compartment model with DAS 1.0 software (Medical College of Wannan). The maximum drug concentration (Cmax) and the time to reach Cmax (Tmax) were acquired from observed concentration–time profile for oral administration in plasma. All data were shown as mean ± SD.

[3] = Stability of stock and working solutions; assay type: physicochemical; conditions: working solution, n = 6
Procedure: as §1

## COc1cc2c3c(c1OC)C1(C=CC(=O)C=C1)C[C@H]3N(C)CC2 [Pronuciferine, pronuciferine]
[1]
  Remain, freeze thaw cycles: 81.9%
  Remain, −80°C for 1 month: 99.2%
  Remain, autosampler for 24 h: 85.5%
  Remain, room temperature for 24 h: 89.2%
[1]; 2 ng/ml
  Remain, freeze thaw cycles: 93.3%
  Remain, −80°C for 1 month: 99.0%
  Remain, autosampler for 24 h: 88.3%
  Remain, room temperature for 24 h: 106%
[1]; 100 ng/ml
  Remain, freeze thaw cycles: 85.5%
  Remain, −80°C for 1 month: 93.9%
  Remain, autosampler for 24 h: 92.6%
  Remain, room temperature for 24 h: 98.9%
[1]; 500 ng/ml
  Remain, freeze thaw cycles: 87.2%
  Remain, −80°C for 1 month: 90.4%
  Remain, autosampler for 24 h: 87.5%
  Remain, room temperature for 24 h: 87.1%
[2]; male, Sprague-Dawley, 2.4 g/kg
  AUC: 2.03 ± 0.717 µg·h/mL
  AUC(0-inf): 2.1 ± 0.704 µg·h/mL
  Cmax: 0.21 ± 0.087 µg/mL
  MRT: 7.43 ± 1.18 h
  MRT inf: 8.36 ± 1.98 h
  Tmax: 4.9 ± 1.37 h
  half-life: 4.44 ± 1.88 h
[2]
  Absorption after orally administrating the lotus leaf extract (in words): slow absorption
  Plasma exposure (in words): abundant plasma exposure
[2]; 2.4 g/kg
  AUCs(0–24 h): 2.03 ± 0.716 µg·h/mL
[3]; 2 ng/ml
  Remain, working solution: 92.9%
[3]; 100 ng/ml
  Remain, working solution: 99.9%
[3]; 500 ng/ml
  Remain, working solution: 105%
[3]; concentration LLOQ, from stock kept at 4°C for 2 weeks
  Remain, working solution: 99.3%
